Laboratory results taken from BigSolDB 2.1.

CC1=NN(c2ccc(C)cc2)C(=O)C1
Settings | solubility (mole fraction)
in 1,4-dioxane, 283.15 K | 0.0337
in 1,4-dioxane, 285.65 K | 0.0367
in 1,4-dioxane, 288.15 K | 0.0399
in 1,4-dioxane, 290.65 K | 0.0432
in 1,4-dioxane, 293.15 K | 0.047
in 1,4-dioxane, 295.65 K | 0.0507
in 1,4-dioxane, 298.15 K | 0.0549
in 1,4-dioxane, 300.65 K | 0.0591
in 1,4-dioxane, 303.15 K | 0.0638
in 1,4-dioxane, 305.65 K | 0.0683
in 1,4-dioxane, 308.15 K | 0.0737
in 1,4-dioxane, 310.65 K | 0.0791
in 1,4-dioxane, 313.15 K | 0.0849
in acetonitrile, 278.15 K | 0.00534
in acetonitrile, 280.65 K | 0.00596
in acetonitrile, 283.15 K | 0.00668
in acetonitrile, 285.65 K | 0.00746
in acetonitrile, 288.15 K | 0.0083
in acetonitrile, 290.65 K | 0.00927
in acetonitrile, 293.15 K | 0.0104
in acetonitrile, 295.65 K | 0.0115
in acetonitrile, 298.15 K | 0.0128
in acetonitrile, 300.65 K | 0.0142
in acetonitrile, 303.15 K | 0.0157
in acetonitrile, 305.65 K | 0.0173
in acetonitrile, 308.15 K | 0.0192
in acetonitrile, 310.65 K | 0.0213
in acetonitrile, 313.15 K | 0.0235
in cyclohexane, 283.15 K | 0.000488
in cyclohexane, 285.65 K | 0.000558
in cyclohexane, 288.15 K | 0.000626
in cyclohexane, 290.65 K | 0.000714
in cyclohexane, 293.15 K | 0.000802
in cyclohexane, 295.65 K | 0.000902
in cyclohexane, 298.15 K | 0.00102
in cyclohexane, 300.65 K | 0.00114
in cyclohexane, 303.15 K | 0.00128
in cyclohexane, 305.65 K | 0.00142
in cyclohexane, 308.15 K | 0.00161
in cyclohexane, 310.65 K | 0.00179
in cyclohexane, 313.15 K | 0.002
in ethanol, 278.15 K | 0.0146
in ethanol, 280.65 K | 0.0161
in ethanol, 283.15 K | 0.0176
in ethanol, 285.65 K | 0.0191
in ethanol, 288.15 K | 0.0209
in ethanol, 290.65 K | 0.0229
in ethanol, 293.15 K | 0.0248
in ethanol, 295.65 K | 0.027
in ethanol, 298.15 K | 0.0294
in ethanol, 300.65 K | 0.0319
in ethanol, 303.15 K | 0.0345
in ethanol, 305.65 K | 0.0372
in ethanol, 308.15 K | 0.0403
in ethanol, 310.65 K | 0.0436
in ethanol, 313.15 K | 0.0471
in ethyl acetate, 278.15 K | 0.0171
in ethyl acetate, 280.65 K | 0.0188
in ethyl acetate, 283.15 K | 0.0207
in ethyl acetate, 285.65 K | 0.0226
in ethyl acetate, 288.15 K | 0.0247
in ethyl acetate, 290.65 K | 0.0271
in ethyl acetate, 293.15 K | 0.0294
in ethyl acetate, 295.65 K | 0.032
in ethyl acetate, 298.15 K | 0.0349
in ethyl acetate, 300.65 K | 0.0378
in ethyl acetate, 303.15 K | 0.041
in ethyl acetate, 305.65 K | 0.0444
in ethyl acetate, 308.15 K | 0.0481
in ethyl acetate, 310.65 K | 0.052
in ethyl acetate, 313.15 K | 0.0562
in ethylbenzene, 278.15 K | 0.0109
in ethylbenzene, 280.65 K | 0.012
in ethylbenzene, 283.15 K | 0.0132
in ethylbenzene, 285.65 K | 0.0146
in ethylbenzene, 288.15 K | 0.016
in ethylbenzene, 290.65 K | 0.0175
in ethylbenzene, 293.15 K | 0.0193
in ethylbenzene, 295.65 K | 0.0211
in ethylbenzene, 298.15 K | 0.0231
in ethylbenzene, 300.65 K | 0.0253
in ethylbenzene, 303.15 K | 0.0276
in ethylbenzene, 305.65 K | 0.0301
in ethylbenzene, 308.15 K | 0.0327
in ethylbenzene, 310.65 K | 0.0356
in ethylbenzene, 313.15 K | 0.0387
in isopentanol, 278.15 K | 0.0303
in isopentanol, 280.65 K | 0.0335
in isopentanol, 283.15 K | 0.037
in isopentanol, 285.65 K | 0.041
in isopentanol, 288.15 K | 0.0449
in isopentanol, 290.65 K | 0.0492
in isopentanol, 293.15 K | 0.0542
in isopentanol, 295.65 K | 0.0593
in isopentanol, 298.15 K | 0.0646
in isopentanol, 300.65 K | 0.0705
in isopentanol, 303.15 K | 0.0769
in isopentanol, 305.65 K | 0.0835
in isopentanol, 308.15 K | 0.0906
in isopentanol, 310.65 K | 0.0982
in isopentanol, 313.15 K | 0.106
in isopropanol, 278.15 K | 0.0116
in isopropanol, 280.65 K | 0.0127
in isopropanol, 283.15 K | 0.014
in isopropanol, 285.65 K | 0.0153
in isopropanol, 288.15 K | 0.0168
in isopropanol, 290.65 K | 0.0184
in isopropanol, 293.15 K | 0.02
in isopropanol, 295.65 K | 0.0218
in isopropanol, 298.15 K | 0.0238
in isopropanol, 300.65 K | 0.0259
in isopropanol, 303.15 K | 0.0281
in isopropanol, 305.65 K | 0.0305
in isopropanol, 308.15 K | 0.033
in isopropanol, 310.65 K | 0.0358
in isopropanol, 313.15 K | 0.0387
in methanol, 278.15 K | 0.0152
in methanol, 280.65 K | 0.0168
in methanol, 283.15 K | 0.0183
in methanol, 285.65 K | 0.02
in methanol, 288.15 K | 0.0221
in methanol, 290.65 K | 0.024
in methanol, 293.15 K | 0.0262
in methanol, 295.65 K | 0.0287
in methanol, 298.15 K | 0.0312
in methanol, 300.65 K | 0.034
in methanol, 303.15 K | 0.0367
in methanol, 305.65 K | 0.0398
in methanol, 308.15 K | 0.0432
in methanol, 310.65 K | 0.0468
in methanol, 313.15 K | 0.0506
in n-butanol, 278.15 K | 0.0188
in n-butanol, 280.65 K | 0.0206
in n-butanol, 283.15 K | 0.0226
in n-butanol, 285.65 K | 0.0247
in n-butanol, 288.15 K | 0.0271
in n-butanol, 290.65 K | 0.0294
in n-butanol, 293.15 K | 0.032
in n-butanol, 295.65 K | 0.0349
in n-butanol, 298.15 K | 0.0377
in n-butanol, 300.65 K | 0.041
in n-butanol, 303.15 K | 0.0444
in n-butanol, 308.15 K | 0.0518
in n-butanol, 310.65 K | 0.056
in n-butanol, 313.15 K | 0.0603
in n-propanol, 278.15 K | 0.0177
in n-propanol, 280.65 K | 0.0194
in n-propanol, 283.15 K | 0.0213
in n-propanol, 285.65 K | 0.0232
in n-propanol, 288.15 K | 0.0254
in n-propanol, 290.65 K | 0.0276
in n-propanol, 293.15 K | 0.0301
in n-propanol, 295.65 K | 0.0326
in n-propanol, 298.15 K | 0.0353
in n-propanol, 300.65 K | 0.0384
in n-propanol, 303.15 K | 0.0414
in n-propanol, 305.65 K | 0.0448
in n-propanol, 308.15 K | 0.0483
in n-propanol, 310.65 K | 0.0522
in n-propanol, 313.15 K | 0.0561
in toluene, 278.15 K | 0.00985
in toluene, 280.65 K | 0.0109
in toluene, 283.15 K | 0.012
in toluene, 285.65 K | 0.0133
in toluene, 288.15 K | 0.0147
in toluene, 290.65 K | 0.0161
in toluene, 293.15 K | 0.0176
in toluene, 295.65 K | 0.0193
in toluene, 298.15 K | 0.021
in toluene, 300.65 K | 0.023
in toluene, 303.15 K | 0.025
in toluene, 305.65 K | 0.0273
in toluene, 308.15 K | 0.0298
in toluene, 310.65 K | 0.0323
in toluene, 313.15 K | 0.0351
